“Also recorded” adds a separate entry of the source.
Tests used:
EGFR = target: T1, EGFR (Mus musculus, UniProt Q01279); assay: EGFR phosphorylation by immunoprecipitation / western blotting in endothelial cells; type: cell-based; conditions: for ligand-induced EGFR phosphorylation / activation: serum starved A375SM tumor EC, ligand 100 ng/ml
T1 construct: endogenous in cells; host or cells: mouse tumour EC isolated from A375SM melanoma, MDA-MB-231 breast carcinoma and liposarcoma xenografts; mouse skin EC as control
Procedure: Immunoprecipitation (IP) and western blotting (WB). […] Cells were also treated with the EGFR kinase inhibitor, AG1478 (Calbiochem, San Diego, Calif.), prepared in DMSO, fifteen minutes prior to growth factor stimulation. Immunoprecipitation (IP) and western blotting (WB) were performed as previously described (16). […] Receptor phosphorylation was detected using anti-phosphotyrosine antibody (mAb 4G10; Upstate, Lake Placid, N.Y.). […] In addition antibodies to GAPDH (Chemicon, Temecula, Calif.), (β-Actin (Sigma-Aldrich, St Louis, Mo.), phospho-Erk1-2 (New England Biolab, Beverly Mass.), and Erk1 (Santa Cruz Biotechnology) were purchased.

[1] = target: ErbB3 on mouse skin endothelial cells (skin EC) (mouse) (UniProt Q61526); assay: cell-based or functional assay
[2] = tested on: A375SM tumor EC (melanoma EC); assay: MTT cell proliferation assay, tumor EC; type: cell-based, mouse
Procedure: (§1) Cell proliferation. Cells (4×103) were plated in triplicates into 96 well plates and allowed to adhere overnight. The cells were then switched to serum free media containing growth factors and/or AG1478 at indicated concentrations. Cells were cultured for 72 hr and cell proliferation was determined by addition of 0.42 mg/ml of 3-(4,5-dimethylthiazol-2-yl)-2,5-diphenyltetrazolium bromide (MTT) reagent (Sigma-Aldrich) for 4 hr prior to harvesting. Media was removed and cells were solubilized in DMSO and absorbance was measured at 570 nm. The averages of the triplicates were calculated and cell proliferation was determined as the percentage of absorbance of treated cells to the untreated cells. All the experiments were at least performed twice.

[3] = tested on: A375SM melanoma xenograft; assay: A375SM melanoma xenograft model in nude mice; type: in vivo, mouse; conditions: EGFR-negative A375SM xenografts in mice, daily treatment, 4 weeks
Procedure: A375SM melanoma tumor cells were injected subcutaneously into nude mice. When the tumors reached an average volume of 200 mm^3 the mice were randomized into a control and Iressa treatment groups. The mice were treated daily p.o. with gefitinib (150 mg/kg) or with the vehicle. Tumor volumes were measured every 4 days.

skin EC = assay: MTT cell proliferation assay, skin EC; type: cell-based, mouse; conditions: increasing EGF
Procedure: as §1

Erk1/2 = Erk1/2 (MAPK) phosphorylation by western blotting in endothelial cells; type: cell-based, mouse
Procedure: (§2) Immunoprecipitation (IP) and western blotting (WB). […] Cells were also treated with the EGFR kinase inhibitor, AG1478 (Calbiochem, San Diego, Calif.), prepared in DMSO, fifteen minutes prior to growth factor stimulation. Immunoprecipitation (IP) and western blotting (WB) were performed as previously described (16). The antibodies used for IP and WB of ErbB1-4 were: SC-03, SC-284, SC-285, and SC-283 respectively (Santa Cruz Biotechnology, Santa Cruz, Calif.). Receptor phosphorylation was detected using anti-phosphotyrosine antibody (mAb 4G10; Upstate, Lake Placid, N.Y.). Analysis of phosphorylated—EGFR on lysates was performed using phospho-1068 EGFR (Cell Signaling Technologies, Beverly Mass.). In addition antibodies to GAPDH (Chemicon, Temecula, Calif.), (β-Actin (Sigma-Aldrich, St Louis, Mo.), phospho-Erk1-2 (New England Biolab, Beverly Mass.), and Erk1 (Santa Cruz Biotechnology) were purchased.

ErbB2 = ErbB2 phosphorylation by immunoprecipitation / western blotting in endothelial cells; type: cell-based, mouse
Procedure: as §2

HB-EGF: Heparin binding-EGF like growth factor, binds EGFR and ErbB4
ligand-induced EGFR phosphorylation / activation (EGFR): promoted EGFR activation in tumor EC

NRG1β extra-cellular domain (R&D Systems) (ligand)
growth inhibition (MTT assay) of skin EC at 5 ng/ml (0.2 nM) NRG1β [1]: 25%

COc1cc2ncnc(Nc3cccc(Cl)c3)c2cc1OC [AG1478, 4-(3-Chloroanillino)-6,7-dimethoxyquinazoline, reference compound]
effect on EGF-induced phosphorylation of EGFR (EGFR; skin EC, inhibitor pretreatment, then EGF 100 ng/ml): had no effect on skin EC
inhibition of EGF-induced phosphorylation of EGFR (EGFR; tumor EC (A375SM melanoma EC), inhibitor pretreatment, then EGF 100 ng/ml): inhibited EGF-induced phosphorylation of EGFR in tumor EC in a dose-dependent manner; also recorded: inhibits EGFR activation on melanoma EC
inhibition of EGF-induced increase in tumor EC cell proliferation ([2]; inhibitor at 1 μM, increasing EGF, MTT 72 hr): completely inhibit
inhibition of EGF-induced tumor EC proliferation ([2]; tumor (melanoma) EC, concentration not stated / dose dependent): completely inhibits EGF dependent proliferation

TGFα: transforming growth factor-alpha, EGFR ligand
ligand-induced EGFR phosphorylation / activation (EGFR): promoted EGFR activation in tumor EC

COc1cc2ncnc(Nc3ccc(F)c(Cl)c3)c2cc1OCCCN1CCOCC1 [Iressa, Gefitinib]
effect on tumor growth (in words) [3]: inhibits EGFR negative A375SM melanoma xenograph growth
effect on tumor growth (in words) ([3]; listed as geftinib): effective against EGFR-negative tumors in mice

EGF: epidermal growth factor, ligand that binds only to EGFR
effect on cell proliferation (in words) (skin EC): did not respond to EGF
phospho-Erk1/2 levels in the presence of EGF (Erk1/2; A375SM tumor EC): increase in phospho-Erk1/2 levels
MAPK activation by EGF (Erk1/2; MDA-MB-231 breast carcinoma EC): subsequent MAPK activation
MAPK activation by EGF (Erk1/2; liposarcoma EC): subsequent MAPK activation
EGF-induced ErbB2 phosphorylation (p-ErbB2) (ErbB2; A375SM tumor EC): increased ErbB2 phosphorylation (p-ErbB2) in tumor EC
ErbB2 activation in response to EGF (ErbB2; MDA-MB-231 breast carcinoma EC): ErbB2 was also activated
ErbB2 activation in response to EGF (ErbB2; liposarcoma EC): ErbB2 was also activated
increase in cell proliferation ([2]; tumor EC, 20 ng/ml of EGF, MTT): 2.5 fold
effect on cell proliferation (in words) ([2]; tumor EC, increasing EGF, MTT): dose-dependent increase in cell proliferation

BTC: betacellulin, binds EGFR and ErbB4
ligand-induced EGFR phosphorylation / activation (EGFR): promoted EGFR activation in tumor EC
